Assay [1] has as its system strains of human rhinovirus (HRV). As to the kind of experiment: Antirhinoviral H1-HeLa cell culture assay (XTT cell protection, EC50), other HRV strains. In kind it is cell-based, human rhinovirus in H1-HeLa cells. The settings on record: read-out: EC50. In outline:
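Protection of H1-HeLa cells from rhinovirus was scored two days post-infection via XTT dye reduction read at 450/650 nm, alongside mock-infected cells for toxicity. CC50/EC50 gives the therapeutic index.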
(Tetrazolium dyes change colour on reduction, which living cells bring about.)

The test system of the next assay is HRV-14. Kind of assay: Antirhinoviral H1-HeLa cell culture assay (XTT cell protection, EC50), HRV-14. In kind it is cell-based, human rhinovirus (HRV) serotype-14 in H1-HeLa cells. The settings on record: Rhinovirus B, HRV14, H1-HeLa. In outline: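 XTT dye reduction (450/650 nm) measured survival of H1-HeLa cells two days after HRV-14 infection at m.o.i. 0.13 in the presence of compound, giving EC50. The therapeutic index is CC50 divided by EC50.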

In assay [2] the target is T1, Recombinant rhinovirus 3C protease, serotype 14 (Human rhinovirus 14, UniProt P03303).
T1 construct: Recombinant rhinovirus 3C proteases; made in house
As to the kind of experiment: Inhibition of rhinovirus 3C protease (FRET assay, kobs/[I]), serotype 14. In kind it is biochemical. Summed up:
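kobs/[I] values came from progress curves of reactions started by adding 50-100 nM protease to buffer (50 mM tris pH 7.6, 1 mM EDTA, 2% DMSO) containing compound and ~1 μM quenched DABCYL-EDANS substrate. Rising EDANS fluorescence reported cleavage.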

In assay [3] the test system is Coxsackievirus type B3 (CVB3). As to the kind of experiment: Anticoxsackieviral cell culture assay (XTT, EC50), CVB3. The format is cell-based, coxsackievirus B3 in H1-HeLa cells. As for the experimental part:
Anticoxsackieviral Cell Culture Assay:
Coxsackievirus types A-21 (CAV-21) and B3 (CVB3) were purchased from American Type Culture Collection (ATCC, Rockville, Md.). Virus stocks were propagated and antiviral assays were performed in H1-HeLa cells (ATCC). Cells were grown in minimal essential medium with 10% fetal bovine serum (Life Technologies, Gaithersburg, Md.). The ability of the compounds of this invention to protect cells against either CAV-21 or CVB3 infection was measured by the XTT dye reduction method. This method is described in Weislow et al., J. Natl. Cancer Inst. (1989), vol. 81, 577-586. H1-HeLa cells were infected with CAV-21 or CVB3 at a multiplicity of infection (m.o.i.) of 0.025 or 0.075, respectively, or mock-infected with medium only. H1-HeLa cells were plated at 4×10^4 cells per well in a 96-well plate and incubated with appropriate concentrations of the test compound. One day (CVB3) or two days (CAV-21) later, XTT/PMS was added to test plates and the amount of formazan produced was quantified spectrophotometrically at 450/650 nm. […] The therapeutic index (TI) was calculated by dividing the CC50 by the EC50.

A further assay deals with coxsackievirus B2 (CVB2). As to the kind of experiment: Anticoxsackieviral cell culture assay (EC50), CVB2. The format is cell-based. The settings on record: Enterovirus B.
[4] abbreviates: Human rhinovirus sp., H1-HeLa, HRV-Hanks.
The mark [5] stands for this setting: Human rhinovirus sp., HRV3, H1-HeLa, HRV-3.
Where [6] appears, read: Human rhinovirus sp., HRV9, H1-HeLa, HRV-9.
The mark [7] stands for this setting: Human rhinovirus sp., HRV10, H1-HeLa, HRV-10.
Where [8] appears, read: Human rhinovirus sp., HRV11, H1-HeLa, HRV-11.
Setting [9] is: Human rhinovirus sp., HRV13, H1-HeLa, HRV-13.
The mark [10] stands for this setting: Human rhinovirus sp., HRV16, H1-HeLa, HRV-16.
[11] abbreviates: Human rhinovirus sp., HRV19, H1-HeLa, HRV-19.
[12] abbreviates: Human rhinovirus sp., HRV25, H1-HeLa, HRV-25.
[13] abbreviates: Human rhinovirus sp., HRV39, H1-HeLa, HRV-39.
Setting [14] is: Human rhinovirus sp., HRV78, H1-HeLa, HRV-78.
Setting [15] is: Human rhinovirus sp., HRV87, H1-HeLa, HRV-87.
Setting [16] is: pH 7.6, HRV-14, read-out: kobs/[I] (3C protease inhibition activity).
Setting [17] is: pH 7.6, HRV-14 3C protease, read-out: kobs/[I] (3C protease inhibition activity).

Read-outs that look alike come from different tables or passages of the source.

Drawing on patent US6514997B2, “Antipicornaviral compounds and compositions, their pharmaceutical uses, and materials for their synthesis” (Agouron Pharmaceuticals, Inc., priority 1999, dated 2003), this text covers EC50 and kinact/KI for six compounds.

T1 sequence (P03303 1538-1719): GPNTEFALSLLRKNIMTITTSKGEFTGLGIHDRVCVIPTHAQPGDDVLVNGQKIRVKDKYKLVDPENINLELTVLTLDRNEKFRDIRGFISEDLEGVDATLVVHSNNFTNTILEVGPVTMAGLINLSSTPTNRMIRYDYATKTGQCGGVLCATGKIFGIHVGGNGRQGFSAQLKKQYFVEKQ

What is called EC50 is the concentration at which the effect is half-maximal. Consider `CCOC(=O)/C=C/[C@H](C[C@@H]1CCNC1=O)NC(=O)[C@H](CC)n1cccc(NC(=O)c2cc(C)on2)c1=O` [Compound 26, trans-(2′S,3″″S,4S)-4-(2′-{3″-[(5′″-Methylisoxazole-3′″-carbonyl)amino]-2″-oxo-2″H-pyridin-1″-yl}butyrylamino)-5-(2″″-oxopyrrolidin-3″″-yl)pent-2-enoic Acid Ethyl Ester], for which the EC50 in assay [1] (H1-HeLa, HRV-1A) is 14 nM; in assay [1] (H1-HeLa, HRV-2) it was 16 nM; in assay [1] (H1-HeLa, HRV-23), 40 nM; in assay [1] (setting [4]), 54 nM; in assay [1] (setting [5]) it was 29 nM; in assay [1] (setting [6]) it was 45 nM. Also, the EC50 turned out to be 27 nM in assay [1] (setting [7]); 4 nM in assay [1] (setting [8]); 58 nM in assay [1] (setting [9]); 50 nM in assay [1] (setting [10]); 65 nM in assay [1] (setting [11]); 102 nM in assay [1] (setting [12]). Also, the EC50 in assay [1] (setting [13]) was 47 nM; in assay [1] (setting [14]), 57 nM; in assay [1] (setting [15]), 21 nM; in the assay on HRV-14, 55 nM; in assay [3] it was 16 nM; in the assay with coxsackievirus B2 (CVB2) it was 55 nM. Also, in assay [2] (setting [16]), the kinact/KI was determined as 170000 M⁻¹ s⁻¹.

As to `C#CC[C@@H](C(=O)N[C@H](/C=C/C(=O)OCC)C[C@@H]1CCNC1=O)n1cccc(NC(=O)c2cc(C)on2)c1=O` [Compound 31, trans-(2′S,3″″S,4S)-4-(2′-{3″-[(5′″-Methyl-isoxazole-3′″-carbonyl)amino]-2″-oxo-2″H-pyridin-1″-yl}pent-4′-ynoyl-amino)-5-(2″″-oxopyrrolidin-3″″-yl)pent-2-enoic Acid Ethyl Ester], the EC50 in assay [1] (H1-HeLa, HRV-1A) was 36 nM; in assay [1] (H1-HeLa, HRV-2) it was 13 nM; in assay [1] (H1-HeLa, HRV-23), 42 nM; in assay [1] (setting [4]) it was 49 nM; in assay [1] (setting [5]), 21 nM; in assay [1] (setting [6]), 44 nM. Moreover, the EC50 in assay [1] (setting [7]) worked out at 48 nM; in assay [1] (setting [8]), 5 nM; in assay [1] (setting [9]) it was 60 nM; in assay [1] (setting [10]), 38 nM; in assay [1] (setting [11]), 50 nM; in assay [1] (setting [12]), 87 nM. Also, the EC50 in assay [1] (setting [13]) came to 43 nM; in assay [1] (setting [14]) it was 61 nM; in assay [1] (setting [15]), 21 nM; in the assay on HRV-14 it was 22 nM; in assay [3] it was 24 nM; in the assay with coxsackievirus B2 (CVB2) it was 57 nM. Also, the kinact/KI in assay [2] (pH 7.6, read-out: kobs/[I] (3C protease inhibition activity)) amounted to 223000 M⁻¹ s⁻¹.

For the compound `CCOC(=O)/C=C/[C@H](C[C@@H]1CCNC1=O)NC(=O)[C@H](Cc1ccc(F)c(F)c1)n1cccc(NC(=O)c2cc(C)on2)c1=O` [Compound 33, trans-(2′S,3′″″S,4S)-4-(3′-(3″,4″-Difluorophenyl)-2′-{3′″-[(5″″-methylisoxazole-3″″-carbonyl)amino]-2′″-oxo-2′″H-pyridin-1′″-yl}propionylamino)-5-(2′″″-oxopyrrolidin-3′″″-yl)pent-2-enoic Acid Ethyl Ester], the EC50 amounted to 3 nM in assay [1] (H1-HeLa, HRV-2); 3 nM in assay [1] (H1-HeLa, HRV-23); 5 nM in assay [1] (setting [4]); 3 nM in assay [1] (setting [5]); 15 nM in assay [1] (setting [6]); 3 nM in assay [1] (setting [8]). Moreover, the EC50 is 14 nM in assay [1] (setting [9]); 6 nM in assay [1] (setting [10]); 4 nM in assay [1] (setting [11]); 28 nM in assay [1] (setting [12]); 4 nM in assay [1] (setting [13]); 5 nM in assay [1] (setting [14]). The EC50 in assay [1] (setting [15]) stood at 5 nM; in the assay with HRV-14, 1 nM; in assay [3], 3 nM; in the assay with coxsackievirus B2 (CVB2) it was 15 nM. The kinact/KI in assay [2] (setting [16]) was found to be 1.8e+06 M⁻¹ s⁻¹.

As for `Cc1cc(C(=O)Nc2cccn([C@@H](Cc3ccc(F)c(F)c3)C(=O)N[C@H](/C=C/C(=O)OC(C)C)C[C@@H]3CCNC3=O)c2=O)no1` [Compound 48, trans-(2′S,3″″″S,4S)-4-[3′-(3″,4″-Difluorophenyl)-2′-(3′″-{[1″″-(5′″″-methylisoxazol-3′″″-yl)methanoyl]amino}-2″″-oxo-2″″H-pyridin-1″″-yl)propanoylamino]-5-(2″″″-oxopyrrolidin-3″″″-yl)pent-2-enoic Acid Isopropyl Ester], the EC50 in assay [1] (H1-HeLa, HRV-1A) turned out to be 132 nM; in assay [1] (H1-HeLa, HRV-2), 48 nM; in assay [1] (H1-HeLa, HRV-23) it was 10 nM; in assay [1] (setting [4]), 3 nM; in assay [1] (setting [5]), 33 nM; in assay [1] (setting [6]) it was 109 nM. In addition, the EC50 in assay [1] (setting [7]) was determined as 85 nM; in assay [1] (setting [8]) it was 3 nM; in assay [1] (setting [9]) it was 44 nM; in assay [1] (setting [10]) it was 36 nM; in assay [1] (setting [11]), 9 nM; in assay [1] (setting [12]) it was 100 nM. The EC50 in assay [1] (setting [13]) came out at 44 nM; in assay [1] (setting [14]), 12 nM; with HRV-14, 3 nM; in assay [3], 187 nM; in the assay with coxsackievirus B2 (CVB2), 162 nM.

For `CC[C@@H](C(=O)N[C@H](/C=C/C(=O)OCc1ccccc1)C[C@@H]1CCNC1=O)n1cccc(NC(=O)c2cc(C)on2)c1=O` [Compound 62, trans-(2′S,3′″″S,4S)-4-[2′-(3″-{[1′″-(5″″-Methylisoxazol-3″″-yl)methanoyl]amino}-2′″oxo-2′″H-pyridin-1′″-yl)butanoylamino]-5-(2′″″-oxopyrrolidin-3′″″-yl)pent-2-enoic Acid Benzyl Ester], the EC50 in assay [1] (H1-HeLa, HRV-1A) stood at 17 nM; in assay [1] (H1-HeLa, HRV-2), 45 nM; in assay [1] (H1-HeLa, HRV-23), 32 nM; in assay [1] (setting [4]), 52 nM; in assay [1] (setting [5]), 52 nM; in assay [1] (setting [6]), 130 nM. In addition, the EC50 is 52 nM in assay [1] (setting [7]); 10 nM in assay [1] (setting [8]); 4 nM in assay [1] (setting [9]); 53 nM in assay [1] (setting [10]); 21 nM in assay [1] (setting [11]); 18 nM in assay [1] (setting [12]). In addition, the EC50 in assay [1] (setting [13]) came out at 43 nM; in assay [1] (setting [14]), 57 nM; in the assay on HRV-14, 61 nM; in assay [3] (H1-HeLa), 15 nM. Also, in assay [2] (setting [17]), the kinact/KI stood at 210000 M⁻¹ s⁻¹.

For the compound `C#CC[C@@H](C(=O)N[C@H](/C=C/C(=O)OCc1ccccc1)C[C@@H]1CCNC1=O)n1cccc(NC(=O)c2cc(C)on2)c1=O` [Compound 63, trans-(2′S,3′″″S,4S)-4-[2′-(3″-{[1′″-(5″″-Methylisoxazol-3″″-yl)methanoyl]amino}-2′″-oxo-2′″H-pyridin-1′″-yl)pent-4″-ynoylamino]-5-(2′″″-oxopyrrolidin-3′″″-yl)pent-2-enoic Acid Benzyl Ester], the EC50 is 12 nM in assay [1] (H1-HeLa, HRV-1A); 24 nM in assay [1] (H1-HeLa, HRV-2); 37 nM in assay [1] (H1-HeLa, HRV-23); 400 nM in assay [1] (setting [4]); 27 nM in assay [1] (setting [5]); 65 nM in assay [1] (setting [6]). For the same compound, the EC50 in assay [1] (setting [7]) came to 46 nM; in assay [1] (setting [8]) it was 17 nM; in assay [1] (setting [9]), 45 nM; in assay [1] (setting [10]), 46 nM; in assay [1] (setting [11]) it was 14 nM; in assay [1] (setting [12]) it was 7 nM. The EC50 in assay [1] (setting [13]) was determined as 35 nM; in assay [1] (setting [14]), 34 nM; with HRV-14, 51 nM; in assay [3] (H1-HeLa) it was 14 nM. Moreover, the kinact/KI in assay [2] (setting [17]) was determined as 300000 M⁻¹ s⁻¹.
